Results from patent publication US10792328B2, “Nanocomplexes for delivery of saporin” (Trustees of Tufts College, priority 2013, dated 2020).

How the values were obtained:
MDA-MB-231 cancer cells = experiment: In vitro protein transfection (saporin delivery), cell viability by Alamar Blue assay; type: cell-based; conditions: MDA-MB-231 cells, under all four studied conditions
Method: Compositions 1-32 were tested for delivery of saporin into cells MDA-MB-231.
The two cells lines were purchased from ATCC (Manassas, Va.) and cultured in Dulbecco's Modified Eagle Medium (“DMEM”) supplemented with 10% Fetal Bovine Serum (“FBS”) and 1% penicillin/streptomycin at 37° C. in the presence of 5% CO2. For the protein transfection assay described below, cells were seeded in 96-well plates at a density of 10,000 cells per well a day prior to transfection.
To evaluate saporin delivery efficiency, lipid-like compound/saporin nanocomplexes prepared in Examples 19-54 were added to MDA-MB-231 cancer cells and incubated at 37° C. for 24 hours. The saporin concentration was 0.1 μg/250 μL in PBS. The same volume of PBS without any lipid-like compound or saporin was used as a control. The cell viability was determined by the Alamar Blue assay after 24 hours of incubation. All transfection studies were performed in quadruplicate.

4T1-12B breast tumors = experiment: In vivo cancer treatment, inhibition of tumor growth; conditions: BALB/c mice bearing 4T1-12B breast tumors, tail-vein injection every three days, 5.5 mg/kg lipid-like compound and 330 μg/kg saporin
Method: Composition 33 (i.e., 1-O16B/saporin) and Composition 34 (i.e., 1-O18B/saporin) were tested for in vivo inhibiting tumor growth following the procedure described below. More specifically, BALB/c mice bearing 4T1-12B breast tumors were developed from a 4T1-12B cell suspension in DMEM supplemented with 10% FBS at a concentration of 10^7 cells/ml. An aliquot (100 μl) of the cell suspension was injected into the mammary fat pad of 4-6 week-old female BALB/c mice. The mice were sorted into four groups randomly (n=7 for treatment group, n=5 for control groups) seven days after the injection. The mice were injected through tail-vein every three days. For the treatment group, each mouse was injected with 5.5 mg/kg of 1-O16B or 1-O18B and 330 μg/kg of saporin. Tumor volumes were measured every three days.
PBS without 1-O16B, 1-O18B, and saporin was also injected as a control. Comparative studies were also conducted using saporin in PBS without 1-O16B and 1-O18B.

Compound | saporin delivery efficiency (MDA-MB-231 cancer cells) | tumor size (4T1-12B breast tumors; Day 16) | tumor size (4T1-12B breast tumors; Day 22)
CCCCCCCCCCSSCCOC(=O)CCN(C)CCCN(C)CCC(=O)OCCSSCCCCCCCCCC [Composition 80-O14B] | high saporin delivery efficiency | – | –
CCCCCCCCCCCCSSCCOC(=O)CCN(CCCN(CCO)CCO)CCC(=O)OCCSSCCCCCCCCCCCC [Composition 87-O16B] | high saporin delivery efficiency | – | –
saporin | – | more than 120 mm^3 | more than 250 mm^3
CCCCCCCCCCCCCCCCOC(=O)CCN(C)CCCN(C)CCC(=O)OCCCCCCCCCCCCCCCC [Composition 80-O16] | high saporin delivery efficiency | – | –
CCCCCCCCCCCCCCCCCCOC(=O)CCN(C)CCCN(C)CCC(=O)OCCCCCCCCCCCCCCCCCC [Composition 80-O18] | high saporin delivery efficiency | – | –
CCCCCCCCCCCCSSCCOC(=O)CCN(C)CCCN(C)CCC(=O)OCCSSCCCCCCCCCCCC [Composition 80-O16B] | high saporin delivery efficiency | – | –
CCCCCCCCCCCCCCSSCCOC(=O)CCN(C)CCCN(C)CCC(=O)OCCSSCCCCCCCCCCCCCC [Composition 80-O18B] | high saporin delivery efficiency | – | –
